Measurements published in publication PMC8855934 (Journal of medicinal chemistry, 2021).
Changes are numbered by the printed parent chain. Blank lines part the entries; values can stand above or below the compound they belong to.

Key:
AR T878A mutant protein = biological target: T1, AR T878A mutant protein (Homo sapiens, UniProt P10275, T878A); details: LNCaP, 1 h
T1 sequence (P10275 1-920 T878A): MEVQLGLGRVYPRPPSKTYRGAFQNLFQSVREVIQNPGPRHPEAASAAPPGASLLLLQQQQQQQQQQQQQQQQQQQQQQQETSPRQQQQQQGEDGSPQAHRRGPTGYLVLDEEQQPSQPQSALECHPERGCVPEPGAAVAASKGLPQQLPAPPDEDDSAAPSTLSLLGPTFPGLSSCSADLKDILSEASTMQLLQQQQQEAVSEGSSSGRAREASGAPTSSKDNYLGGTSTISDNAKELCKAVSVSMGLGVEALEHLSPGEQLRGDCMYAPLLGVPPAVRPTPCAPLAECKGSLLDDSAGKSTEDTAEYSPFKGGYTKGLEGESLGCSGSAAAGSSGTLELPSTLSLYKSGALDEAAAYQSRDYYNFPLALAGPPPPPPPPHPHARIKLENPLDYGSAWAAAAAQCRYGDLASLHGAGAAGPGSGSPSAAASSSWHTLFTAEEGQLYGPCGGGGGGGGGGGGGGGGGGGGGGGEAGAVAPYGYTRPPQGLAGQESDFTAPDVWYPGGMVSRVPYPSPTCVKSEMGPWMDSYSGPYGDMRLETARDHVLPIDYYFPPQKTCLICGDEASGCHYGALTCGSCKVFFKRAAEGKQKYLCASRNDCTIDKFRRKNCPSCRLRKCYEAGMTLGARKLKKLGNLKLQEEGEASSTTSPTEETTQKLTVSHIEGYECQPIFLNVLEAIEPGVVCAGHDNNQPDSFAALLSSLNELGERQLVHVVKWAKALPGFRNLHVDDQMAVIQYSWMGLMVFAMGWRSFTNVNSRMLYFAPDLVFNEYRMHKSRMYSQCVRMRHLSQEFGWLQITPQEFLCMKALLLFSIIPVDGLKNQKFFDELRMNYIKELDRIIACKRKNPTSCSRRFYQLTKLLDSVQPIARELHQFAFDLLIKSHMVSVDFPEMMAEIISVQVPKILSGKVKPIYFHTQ

AR protein [1] = biological target: T2, AR protein (Homo sapiens, UniProt P10275); assay: AR degradation in VCaP cell line; format: cell-based; details: for reduction of AR protein level (degradation kinetics) / Dmax: VCaP; for reduction of AR protein level (degradation kinetics): 1 h; for Dmax: read-out: Dmax, AR degradation in VCaP cell line, VCaP cell line, 24 h treatment, Western blotting
T2 sequence (P10275 1-920): T1 sequence (P10275 1-920 T878A) with A878T

Pharmacokinetics in mice = format: in vivo; details: male, mouse, iv, 1 mg/kg
AR protein [2] = biological target: T2, AR protein; details: single oral administration 20 mg/kg, 6 and 24 h time-points, Western blotting
Oral exposures in mice = format: in vivo; details: oral gavage, non-tumor-bearing male mice (Table S1)

- reduction of AR protein level (degradation kinetics) (AR T878A mutant protein): effectively reduce
- reduction of AR protein level (degradation kinetics) (AR protein [1]): effectively reduce
Compound: N#Cc1ccc(O[C@H]2CC[C@H](NC(=O)c3ccc(N4CCN(CC5CN(c6ccc7c(c6)C(=O)N(C6CCC(=O)NC6=O)C7=O)C5)CC4)cc3)CC2)cc1Cl (stereo partly drawn) [Compound 27, N-(1R,4R)-4-((3-Chloro-4-cyanophenoxy)cyclohexyl)-4-(4-((l-(2-(2,6-dioxopiperidin-3-yl)-1,3-dioxoisoindolin-5-yl)azetidin-3-yl)-methyl)piperazin-1-yl)benzamide]

Compound: CN(c1ccc(C#N)c(Cl)c1)[C@H]1CC[C@H](NC(=O)c2ccc(N3CC(N4CCN(c5ccc6c(c5)C(=O)N(C5CCC(=O)NC5=O)C6=O)CC4)C3)cc2)CC1 (stereo partly drawn) [Compound 45, N-(1R,4R)-4-(((3-Chloro-4-cyanophenyl)(methyl)amino)-cyclohexyl)-4-(3-(4-(2-(2,6-dioxopiperidin-3-yl)-1,3-dioxoisoindolin-5-yl)piperazin-1-yl)azetidin-1-yl)benzamide]
- Vd (Pharmacokinetics in mice; in vivo): 1.8 to 2.1 L/kg
- clearance (Pharmacokinetics in mice; in vivo): 3.33 to 5 mL/min/kg
- half-life (Pharmacokinetics in mice; in vivo): 5.5 to 7.5 h
- clearance (Pharmacokinetics in mice; plasma): 3.33 mL/min/kg
- reduction of AR protein level in VCaP tumor tissue (AR protein [2]): effective
- reduction of AR protein level (degradation kinetics) (AR T878A mutant protein): effectively reduce
- reduction of AR protein level (degradation kinetics) (AR protein [1]): effectively reduce

Compound: CN(c1ccc(C#N)c(Cl)c1)[C@H]1CC[C@H](NC(=O)c2ccc(N3CCC(N4CCN(c5ccc6c(c5)C(=O)N(C5CCC(=O)NC5=O)C6=O)CC4)CC3)cc2)CC1 (stereo partly drawn) [Compound 35]
- clearance (Pharmacokinetics in mice; plasma): 5 mL/min/kg

- effect in reducing AR protein (in words) (AR protein [1]; VCaP cell line): little or no effect
Compound: N#Cc1ccc(OC2CCN(C(=O)c3ccc(N4CCC(N5CCN(c6ccc7c(c6)C(=O)N(C6CCC(=O)NC6=O)C7=O)CC5)CC4)cc3)CC2)cc1Cl (stereo not drawn) [Compound 32, 2-Chloro-4-((1-(4-(4-(4-(2-(2,6-dioxopiperidin-3-yl)-1,3-dioxoisoindolin-5-yl)piperazin-1-yl)piperidin-1-yl)benzoyl)piperidin-4-yl)-oxy)benzonitrile]

Compound: CN(c1ccc(C#N)c(Cl)c1)[C@H]1CC[C@H](NC(=O)c2ccc(N3CC(CN4CCN(c5ccc6c(c5)C(=O)N(C5CCC(=O)NC5=O)C6=O)CC4)C3)cc2)CC1 (stereo partly drawn) [Compound 44, N-(1R,4R)-4-(((3-Chloro-4-cyanophenyl)(methyl)amino)-cyclohexyl)-4-(3-((4-(2-(2,6-dioxopiperidin-3-yl)-1,3-dioxoisoindolin-5-yl)piperazin-1-yl)methyl)azetidin-1-yl)benzamide]
- reduction of AR protein level (degradation kinetics) (AR T878A mutant protein): effectively reduce
- reduction of AR protein level (degradation kinetics) (AR protein [1]): effectively reduce

- clearance (Pharmacokinetics in mice; plasma): 6.67 mL/min/kg
- reduction of AR protein level (degradation kinetics) (AR T878A mutant protein): effectively reduce
- reduction of AR protein level (degradation kinetics) (AR protein [1]): effectively reduce
Compound: N#Cc1ccc(O[C@H]2CC[C@H](NC(=O)c3ccc(N4CCC(N5CCN(c6ccc7c(c6)C(=O)N(C6CCC(=O)NC6=O)C7=O)CC5)CC4)cc3)CC2)cc1Cl (stereo partly drawn) [Compound 26, N-(1R,4R)-4-((3-Chloro-4-cyanophenoxy)cyclohexyl)-4-(4-(4-(2-(2,6-dioxopiperidin-3-yl)-1,3-dioxoisoindolin-5-yl)piperazin-1-yl)-piperidin-1-yl)benzamide]

- oral exposures in mice (Oral exposures in mice): very low
Compound: N#Cc1ccc(O[C@H]2CC[C@H](NC(=O)c3ccc(NCCCNc4ccc5c(c4)C(=O)N(C4CCC(=O)NC4=O)C5=O)cc3)CC2)cc1Cl (stereo partly drawn) [Compound 11, N-((1R,4R)-4-(3-Chloro-4-cyanophenoxy)cyclohexyl)-4-((3-((2-(2,6-dioxopiperidin-3-yl)-1,3-dioxoisoindolin-5-yl)amino)propyl)-amino)benzamide]

- Dmax (AR protein [1]): < 32%
Compound: N#Cc1ncc(N2C(=O)C3(CCC3)N(c3ccc(C(=O)N4CCN(C5CCN(c6ccc7c(c6)C(=O)N(C6CCC(=O)NC6=O)C7=O)CC5)CC4)c(F)c3)C2=S)cc1C(F)(F)F (stereo not drawn) [Compound 48, 5-(5-(4-(4-(1-(2-(2,6-Dioxopiperidin-3-yl)-1,3-dioxoisoindolin-5-yl)piperidin-4-yl)piperazine-1-carbonyl)-3-fluorophenyl)-8-oxo-6-thioxo-5,7-diazaspiro[3.4]octan-7-yl)-3-(trifluoromethyl)-picolinonitrile]

Compound: CC(O)(CS(=O)(=O)c1ccc(N2CCN(C3CCN(c4ccc5c(c4)C(=O)N(C4CCC(=O)NC4=O)C5=O)CC3)CC2)cc1)C(=O)Nc1ccc(C#N)c(C(F)(F)F)c1 (stereo not drawn) [Compound 46, N-(4-Cyano-3-(trifluoromethyl)phenyl)-3-((4-(4-(1-(2-(2,6-dioxopiperidin-3-yl)-1,3-dioxoisoindolin-5-yl)piperidin-4-yl)piperazin-1-yl)phenyl)sulfonyl)-2-hydroxy-2-methylpropanamide]
- Dmax (AR protein [1]): < 32%

Compound: CN(c1ccc(C#N)c(Cl)c1)[C@H]1CC[C@H](NC(=O)c2ccc(N3CCN(C4CCN(c5ccc6c(c5)C(=O)N(C5CCC(=O)NC5=O)C6=O)CC4)CC3)cc2)CC1 (stereo partly drawn) [Compound 41, N-(1R,4R)-4-(((3-Chloro-4-cyanophenyl)(methyl)amino)-cyclohexyl)-4-(4-(1-(2-(2,6-dioxopiperidin-3-yl)-1,3-dioxoisoindolin-5-yl)piperidin-4-yl)piperazin-1-yl)benzamide]
- reduction of AR protein level in VCaP tumor tissue (AR protein [2]): effective
- reduction of AR protein level (degradation kinetics) (AR T878A mutant protein): effectively reduce
- reduction of AR protein level (degradation kinetics) (AR protein [1]): effectively reduce

- oral exposures in mice (Oral exposures in mice): very low
Compound: N#Cc1ccc(O[C@H]2CC[C@H](NC(=O)c3ccc(NCCCCCNc4ccc5c(c4)C(=O)N(C4CCC(=O)NC4=O)C5=O)cc3)CC2)cc1Cl (stereo partly drawn) [Compound 13, N-((1R,4R)-4-(3-Chloro-4-cyanophenoxy)cyclohexyl)-4-((5-((2-(2,6-dioxopiperidin-3-yl)-1,3-dioxoisoindolin-5-yl)amino)pentyl)-amino)benzamide]

- effect in reducing AR protein (in words) (AR protein [1]; VCaP cell line): little or no effect
Compound: N#Cc1ccc(O[C@@H]2CCCN(C(=O)c3ccc(N4CCC(N5CCN(c6ccc7c(c6)C(=O)N(C6CCC(=O)NC6=O)C7=O)CC5)CC4)cc3)CC2)cc1Cl (stereo partly drawn) [Compound 33]

- Dmax, AR degradation in VCaP cell line (AR protein [1]; VCaP cell line, 24 h treatment, Western blotting): 54%
Compound: N#Cc1ccc(O[C@H]2CCC[C@H](NC(=O)c3ccc(N4CCC(N5CCN(c6ccc7c(c6)C(=O)N(C6CCC(=O)NC6=O)C7=O)CC5)CC4)cc3)CCC2)cc1Cl (stereo partly drawn) [Compound 31, N-(1R,5R)-5-((3-Chloro-4-cyanophenoxy)cyclooctyl)-4-(4-(4-(2-(2,6-dioxopiperidin-3-yl)-1,3-dioxoisoindolin-5-yl)piperazin-1-yl)-piperidin-1-yl)benzamide]

Compound: CN(c1ccc(C#N)c(Cl)c1)[C@H]1CC[C@H](NC(=O)c2ccc(N3CCC(CN4CCN(c5ccc6c(c5)C(=O)N(C5CCC(=O)NC5=O)C6=O)CC4)CC3)cc2)CC1 (stereo partly drawn) [Compound 40, N-(1R,4R)-4-(((3-Chloro-4-cyanophenyl)(methyl)amino)-cyclohexyl)-4-(4-((4-(2-(2,6-dioxopiperidin-3-yl)-1,3-dioxoisoindolin-5-yl)piperazin-1-yl)methyl)piperidin-1-yl)benzamide]
- reduction of AR protein level (degradation kinetics) (AR T878A mutant protein): effectively reduce
- reduction of AR protein level (degradation kinetics) (AR protein [1]): effectively reduce
